The results in this text go back to patent publication US20230129258A1, “HETEROTANDEM BICYCLIC PEPTIDE COMPLEXES” (BicycleTx Limited, priority 2019, published 2023).

The target in data set [1] is T1, CD137 (Homo sapiens, UniProt Q07011). Description: CD137 reporter assay (Promega, Jurkat cells) in co-culture with PD-L1-expressing RKO cells. It is filed as cell-based. Further details: host or cells: Jurkat reporter cells. The note with it: read-out: Fold Induction over background. How it is done:
Culture medium, referred to as R1 media, is prepared by adding 1% FBS to RPMI-1640 (component of Promega kit CS196005). Serial dilutions of test articles in R1 are prepared in a sterile 96 well-plate. Add 25 μL per well of test articles or R1 (as a background control) to designated wells in a white cell culture plate. Tumor cells* are harvested and resuspended at a concentration of 400,000 cells/mL in R1 media. Twenty five (25) μL/well of tumor cells are added to the white cell culture plate. Jurkat cells (Promega kit CS196005, 0.5 mL) are thawed in the water bath and then added to 5 ml pre-warmed R1 media. Twenty five (25) μL/well of Jurkat cells are then added to the white cell culture plate. Incubate the cells and test articles for 6 h at 37° C., 5% CO2. At the end of 6 h, add 75 μL/well Bio-Glo™ reagent (Promega) and incubate for 10 min before reading luminescence in a plate reader (Clariostar, BMG). The fold change relative to cells alone (Jurkat cells+Cell line used in co-culture) is calculated and plotted in GraphPad Prism as log(agonist) vs response to determine EC50 (nM) and Fold Induction over background (Max).
The tumor cell types used in co-culture for EphA2 are A549, PC3 and HT29. The tumor cell type used in co-culture for PD-L1 is RKO.

Data set [2] has as its target T1, CD137. Description: CD137 reporter assay (Promega CD137 luciferase reporter, Jurkat cells) in co-culture with Nectin-4-expressing tumor cells. It is filed as cell-based. Also on record: host or cells: Jurkat reporter cells. The note with it: for EC50: Arithmetic mean EC50 (nM). For orientation: Reporter assays use an easily measured gene product as a stand-in for the process of interest.

Data set [3] relates to 5484 full-length human plasma membrane proteins and secreted proteins expressed in HEK293 cells. Description: Retrogenix cell microarray off-target screening. The note with it: 1 μM test peptide. Format: binding. The method, then:
Retrogenix microarray screening: Retrogenix's cell microarray technology was used to screen for specific off-target binding interactions of a biotinylated BCY11863 known as BCY13582.
Under these conditions, the test peptide was screened for binding against human HEK293 cells, individually expressing 5484 full-length human plasma membrane proteins and secreted proteins.
Each primary hit was re-expressed, along with two control receptors (TGFBR2 and EGFR), and re-tested with 1 μM BCY13582 test peptide, 1 μM BCY13582 test peptide in the presence of 100 μM BCY11863, and other positive and negative control treatments (FIG. 4). […] These were untethered and tethered forms of Nectin-4, and CD137—the primary targets.

In data set [4] the test system is TNF family receptors OX40 and CD40. Description: CD137 paralogue screening by SPR. The note with it: streptavidin captured peptide, soluble receptors. Format: binding. How it is done:
CD137 Paralogue screening: Binding of streptavidin captured BCY13582 (biotinylated-BCY11863) was assessed using SPR against soluble TNF family receptors OX40 and CD40.
In general terms: SPR reads the build-up and loss of mass on a sensor chip optically.

The next data set concerns the target T2, OX40 (Homo sapiens, UniProt P43489).
T2 construct: host or cells: OX40 Jurkat cells
T2 sequence (P43489 29-277): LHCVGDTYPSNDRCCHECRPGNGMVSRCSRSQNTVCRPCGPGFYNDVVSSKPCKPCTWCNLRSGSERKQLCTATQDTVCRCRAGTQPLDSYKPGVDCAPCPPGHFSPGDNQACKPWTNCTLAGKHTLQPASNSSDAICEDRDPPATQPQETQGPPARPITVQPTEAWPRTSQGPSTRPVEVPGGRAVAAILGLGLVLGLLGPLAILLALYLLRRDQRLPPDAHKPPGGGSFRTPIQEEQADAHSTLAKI
Description: Promega OX40 cell-activity assay (NF-kB luciferase, Jurkat) in co-culture with 4T1-D02 tumor cells. It is filed as cell-based. The note with it: co-culture with Nectin-4 positive 4T1-D02 cells. How it is done: Promega have developed an OX40 cell-activity assay that uses NF-κB luciferase luminescence as a read-out of OX40 activation in Jurkat cells (Promega CS197704). On the day of the experiment, prepare medium by thawing FBS and adding 5% FBS to RPMI-1640. Thaw OX40 Jurkat cells in the water-bath and then add 500 μl cells to 11.5 ml pre-warmed 5% FBS RPMI-1640 medium. Add 55 μl cells/well to white cell culture plates. Harvest tumor cells from culture. 4T1 is a Nectin-4 negative murine mammary gland epithelial cancer cell and it was genetically modified to express murine Nectin-4 on the cell surface (4T1 Nectin-4 positive; clone 411-D02). Tumor cells were cultured to 80% confluency in vitro in RPM11640 medium supplemented with 10% heat-inactivated FBS, 1× Penicillin/Streptomycin, 1× L-Glutamine, 20 mM HEPES and 1×NEAA (RPMI working medium). Tumor cells were trypsinized and washed two times at 1500 rpm for 5 minutes in RPM11640 working medium prewarmed to 37° C. Count cells and resuspend at 2,000,000 cells/mL in R5 media (for 10,000 cells/well). Add 5 μL of tumor cells per well. […]
Co-incubate cells together with agonists for 6 hours at 37° C., 5% CO2. […] Read luciferase signal on CLAIROStar plate-reader using the MARS program and normalize the fold induction relative to background (medium alone). […]

T1 sequence (Q07011 24-255): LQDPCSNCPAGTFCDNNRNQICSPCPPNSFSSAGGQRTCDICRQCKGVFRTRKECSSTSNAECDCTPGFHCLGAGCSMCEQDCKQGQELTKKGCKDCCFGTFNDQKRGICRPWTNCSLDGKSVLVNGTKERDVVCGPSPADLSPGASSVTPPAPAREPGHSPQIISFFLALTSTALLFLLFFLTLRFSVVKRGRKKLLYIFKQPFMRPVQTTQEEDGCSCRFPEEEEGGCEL

On to `CCCC[C@@H]1NC(=O)[C@H](Cc2ccc(O)cc2)NC(=O)[C@@H]2CCCN2C(=O)[C@H](CC(=O)O)NC(=O)[C@H](C)NC(=O)[C@H](Cc2ccccc2)NC(=O)[C@@H]2CSCCC(=O)N3CN(CN(C3)C(=O)CCSC[C@@H](C(=O)N[C@@H](C)C(N)=O)NC1=O)C(=O)CCSC[C@H](NC(C)=O)C(=O)N[C@@H](CC(C)(C)C)C(=O)N1CCC[C@H]1C(=O)N[C@@H](CCC(=O)O)C(=O)N[C@H](CCCCNC(=O)CCc1cn(CCOCCOCCOCCOCCOCCOCCOCCOCCOCCOCCNC(=O)CCOCCN(CCOCCC(=O)NCCOCCOCCOCCOCCOCCOCCOCCOCCOCCOCCn3cc(CCC(=O)NCCCC[C@@H]4NC(=O)[C@H](CCC(N)=O)NC(=O)[C@@H]5CSCCC(=O)N6CN(CN(C6)C(=O)CCSC[C@@H](C(=O)N6CCC[C@H]6C(=O)N[C@@H](CO)C(=O)N[C@@H](Cc6c[nH]cn6)C(N)=O)NC(=O)[C@H](CC(C)C)NC(=O)[C@H](Cc6c[nH]cn6)NC(=O)[C@H](CC(C)C)NC4=O)C(=O)CCSC[C@H](NC(=O)[C@H](CCCCN)NC(=O)[C@H](CC(=O)O)NC(=O)[C@H](CO)NC(C)=O)C(=O)N[C@@H](CO)C(=O)N[C@@H](C)C(=O)NCC(=O)N[C@@H](Cc4c[nH]c6ccccc46)C(=O)N[C@@H](CC(C)C)C(=O)N[C@@H]([C@@H](C)O)C(=O)N[C@@H](CCSC)C(=O)N5)nn3)CCOCCC(=O)NCCOCCOCCOCCOCCOCCOCCOCCOCCOCCOCCn3cc(CCC(=O)NCCCC[C@H]4NC(=O)[C@H](CCC(=O)O)NC(=O)[C@@H]5CCCN5C(=O)[C@H](CC(C)(C)C)NC(=O)[C@@H](NC(C)=O)CSCCC(=O)N5CN6CN(C5)C(=O)CCSC[C@H](NC(=O)[C@H](Cc5ccc(O)cc5)NC(=O)[C@@H]5CCCN5C4=O)C(=O)N[C@@H](Cc4ccccc4)C(=O)N[C@@H](C)C(=O)N[C@@H](CC(=O)O)C(=O)N4CCC[C@H]4C(=O)N[C@@H](Cc4ccc(O)cc4)C(=O)N[C@@H](CCCC)C(=O)N[C@H](C(=O)N[C@@H](C)C(N)=O)CSCCC6=O)nn3)nn1)C(=O)N1CCC[C@H]1C(=O)N[C@@H](Cc1ccc(O)cc1)C(=O)N2` [BCY11780], for which the fold induction on CD137 [1] is 13.
Turning to `CCCC[C@@H]1NC(=O)[C@H](Cc2ccc(O)cc2)NC(=O)[C@@H]2CCCN2C(=O)[C@H](CC(=O)O)NC(=O)[C@H](C)NC(=O)[C@H](Cc2ccccc2)NC(=O)[C@@H]2CSCCC(=O)N3CN(CN(C3)C(=O)CCSC[C@@H](C(=O)N[C@@H](C)C(N)=O)NC1=O)C(=O)CCSC[C@H](NC(C)=O)C(=O)N[C@@H](CC(C)(C)C)C(=O)N1CCC[C@H]1C(=O)N[C@@H](CCC(=O)O)C(=O)N[C@H](CCCCNC(=O)CCc1cn(CCOCCOCCOCCN(CCOCCOCCOCCC(=O)N[C@H]3CSCCC(=O)N4CN5CN(C4)C(=O)CCSC[C@H](NC(=O)[C@@H](CC(=O)O)NC(=O)[C@H](Cc4cccc6ccccc46)NC(=O)[C@@H]4CCCN4C3=O)C(=O)N[C@@H](CCSC)C(=O)N[C@@H](CCCCNC(=N)N)C(=O)N[C@@H](CC(=O)O)C(=O)N[C@@H](Cc3c[nH]c4ccccc34)C(=O)N[C@@H](CO)C(=O)N[C@@H]([C@@H](C)O)C(=O)N3CCC[C@H]3C(=O)N3C[C@H](O)C[C@H]3C(=O)N[C@@H](Cc3c[nH]c4ccccc34)C(=O)N[C@H](C(N)=O)CSCCC5=O)CCOCCOCCOCCn3cc(CCC(=O)NCCCC[C@H]4NC(=O)[C@H](CCC(=O)O)NC(=O)[C@@H]5CCCN5C(=O)[C@H](CC(C)(C)C)NC(=O)[C@@H](NC(C)=O)CSCCC(=O)N5CN6CN(C5)C(=O)CCSC[C@H](NC(=O)[C@H](Cc5ccc(O)cc5)NC(=O)[C@@H]5CCCN5C4=O)C(=O)N[C@@H](Cc4ccccc4)C(=O)N[C@@H](C)C(=O)N[C@@H](CC(=O)O)C(=O)N4CCC[C@H]4C(=O)N[C@@H](Cc4ccc(O)cc4)C(=O)N[C@@H](CCCC)C(=O)N[C@H](C(=O)N[C@@H](CCCCNC(=O)CCOCCOCCOCCOCCOCCOCCOCCOCCOCCOCCOCCOCCNC(=O)CCCC[C@@H]4SC[C@@H]5NC(=O)N[C@@H]54)C(N)=O)CSCCC6=O)nn3)nn1)C(=O)N1CCC[C@H]1C(=O)N[C@@H](Cc1ccc(O)cc1)C(=O)N2` [BCY13582], the EC50 worked out at 0.58 ± 0.27 nM on CD137 [2] (co-culture with HT1376 (human), Table 1B) and 0.34 ± 0.02 nM at CD137 [2] (co-culture with MDA-MB-468 (human)). On CD137 [2] (co-culture with HT1376, Table 2A), the Emax is reported as 57 fold induction over background. In addition, in data set [3], the specific off-target interactions entry was “No specific off-target interactions”. The “binding to OX40 and CD40: concentration up to which no binding was seen” value in data set [4] was over 100 nM.
In the case of `CSCC[C@@H]1NC(=O)[C@@H]2CSCCC(=O)N3CN(CN(C3)C(=O)CCSC[C@H](NC(=O)CCOCCOCCOCCN(CCOCCOCCOCCn3cc(CCC(=O)NCCCC[C@H](NC(=O)[C@H](C)NC(=O)[C@@H]4CSCCC(=O)N5CN6CN(C5)C(=O)CCSC[C@H](NC(=O)[C@@H]5CCCN5C(=O)[C@H](CO)NC(=O)[C@H](Cc5ccc(O)cc5)NC(=O)[C@H](CC(C)C)NC(=O)[C@@H](NC(=O)[C@H](C)N)CSCCC6=O)C(=O)N[C@@H](Cc5c[nH]c6ccccc56)C(=O)N[C@@H](Cc5c[nH]cn5)C(=O)N5CCC[C@H]5C(=O)N[C@@H](CC(C)C)C(=O)N[C@@H](CC(N)=O)C(=O)N[C@@H](CC(=O)O)C(=O)N4)C(N)=O)nn3)CCOCCOCCOCCn3cc(CCC(=O)NCCCC[C@H](NC(=O)[C@H](C)NC(=O)[C@@H]4CSCCC(=O)N5CN6CN(C5)C(=O)CCSC[C@H](NC(=O)[C@@H]5CCCN5C(=O)[C@H](CO)NC(=O)[C@H](Cc5ccc(O)cc5)NC(=O)[C@H](CC(C)C)NC(=O)[C@@H](NC(=O)[C@H](C)N)CSCCC6=O)C(=O)N[C@@H](Cc5c[nH]c6ccccc56)C(=O)N[C@@H](Cc5c[nH]cn5)C(=O)N5CCC[C@H]5C(=O)N[C@@H](CC(C)C)C(=O)N[C@@H](CC(N)=O)C(=O)N[C@@H](CC(=O)O)C(=O)N4)C(N)=O)nn3)C(=O)N3CCC[C@H]3C(=O)N[C@@H](Cc3cccc4ccccc34)C(=O)N[C@H](CC(=O)O)C(=O)N2)C(=O)CCSC[C@@H](C(N)=O)NC(=O)[C@H](Cc2c[nH]c3ccccc23)NC(=O)[C@@H]2C[C@@H](O)CN2C(=O)[C@@H]2CCCN2C(=O)[C@H]([C@@H](C)O)NC(=O)[C@H](CO)NC(=O)[C@H](Cc2c[nH]c3ccccc23)NC(=O)[C@H](CC(=O)O)NC(=O)[C@H](CCCCNC(=N)N)NC1=O` [BCY12967], the OX40 agonism entry at OX40 is “potent OX40 agonism”.

As usually defined, the EC50 is the concentration giving half of the maximal effect. Low values mean higher potency in that assay, high ones lower potency in that assay.
